For 2 compounds, IC50 and CC50 results are on record in ChEMBL document CHEMBL1148257, “The significant effect of the carbohydrate structures on the DNA photocleavage of the quinoxaline-carbohydrate hybrids” (Bioorg Med Chem Lett, 2004).

Each structure is given as a SMILES string.

Assay [1] deals with HeLa. Kind of assay: Cytotoxicity of compound against HeLa S3 cells without photoirradiation. Format: functional, cell-based. Conditions: Homo sapiens, light or radiation study.
A further assay deals with Nucleic Acid. In words: Concentrations of compound at which 50% Form I DNA was converted into Form II DNA of Phi X 174. Format: functional.
Assay [2] deals with HeLa. In words: Cytotoxicity of compound against HeLa S3 cells exposed to compound for 72 hr with 1 hr photoirradiation. As to conditions: Homo sapiens, light or radiation study.

As a reminder, the IC50 is the midpoint of a concentration-inhibition curve. The low end stands for higher potency, the high end for lower potency.

Take `CC1O[C@H](OC2C(O)C[C@H](OCCOC(=O)c3cnc4ccccc4n3)OC2C)CC(N)C1O` (some centres undefined): the IC50 is more than 100 µM in the assay on HeLa [1] and 6 µM in the assay with HeLa [2]. Besides, the CC50 in the assay with Nucleic Acid is 43 µM.
`CC1O[C@H](OC2C(O)C[C@@H](OCCOC(=O)c3cnc4ccccc4n3)OC2C)CC(N)C1O` (some centres undefined) displayed a CC50 in the assay with Nucleic Acid of 160 µM.
